# Test results published in patent publication US20120003661A1, “METHODS AND DEVICES FOR THE SELECTIVE DETECTION OF MICROORGANISMS” (C3 JIAN, INC., priority 2010, published 2012).
# Entries after “also recorded” stand apart in the source; their conditions may differ.
# Test system: bacteria, fungi, and/or yeasts
# Format: binding
# Details: microorganism(s) listed as target(s) of the targeting peptide; wrapped target lists given cell by cell
row,Substance,Target(s)
1,PF-133 (GDPTAGQKPVECP),"S. epidermidis, C. jeikeium, C. jejuni,; also recorded: M. smegmatis"
2,1T-17 (NNAIVYIS),yeast and hyphal forms
3,PF-026 (SIHFIN),"S. epidermidis, M. luteus, P. mirabilis,; also recorded: C. albicans, MRSA, E. faecalis,; also recorded: C. jeikeium"
4,PF-048 (LYFAFKKYQERVNQAPNIEY),"S. epidermidis, M. luteus, E. coli,; also recorded: MRSA, C. jeikeium, C. jejuni"
5,1T-282 (ISLVFPAYT),"F. nucleatum, P. gingivalis, S. gordonii,; also recorded: S. mitis, S. mutans, S. oralis,; also recorded: S. salivarious, S. sanguinis"
6,PF-543,C. albicans hyphae
7,PF-033 (MFIFKTTSKSHFHNNVKSLECIKIPINKNR),"S. epidermidis, M. luteus, E. coli,; also recorded: P. aeruginosa, C. albicans,; also recorded: MRSA, S. pneumoniae"
8,PF-149 (GKVSVLTRVPRSLGGAPANQ),"S. epidermidis, M. luteus, E. coli,; also recorded: MRSA, C. jeikeium"
9,PF-049 (AYYLKRREEKGK),"S. epidermidis, MRSA, C. jeikeium,; also recorded: C. jejuni"
10,1T-279 (FVLRTKHCFY),"A. naeslundii, F. nucleatum, P. gingivalis,; also recorded: S. gordonii, S. mitis,; also recorded: S. mutans, S. oralis, S. salivarious,; also recorded: S. sanguinis"
11,PF-163 (TSWLRAAERQEIGEPTKTFGEKTTSL),S. epidermidis
12,1T-259 (EKLKKILLKLAVCGKAWYTL),"F. nucleatum, P. gingivalis, T. denticola,; also recorded: S. mitis, S. mutans, S. oralis,; also recorded: S. sanguinis"
13,PF-014 (HPTDNKHN),"E. coli, C. jeikeium"
14,1T-301 (SKLPRVLDASLKL),"F. nucleatum, S. gordonii, S. sanguinis"
15,1T-300 (PLIISKAQIKMSGDILGSCFKLFYLRPFF),"S. salivarious, S. sanguinis; also recorded: A. naeslundii, F. nucleatum, P. gingivalis,; also recorded: S. epidermidis, S. gordonii,; also recorded: S. mitis, S. mutans, S. oralis,"
16,PF-174 (RGGDSPARRRPGLAGPGGPG),"S. epidermidis, P. aeruginosa, C. jeikeium"
17,PF-050 (SYYLKRREEKGK),"S. epidermidis, M. luteus, E. coli,; also recorded: C. jeikeium"
18,PF-040 (MIHLTKQNTMEALHFIKQFYDMFFILNFNV),"C. albicans hyphae; also recorded: S. epidermidis, M. luteus, P. mirabilis,; also recorded: E. coli, P. aeruginosa,; also recorded: C. albicans, MRSA, S. pneumoniae,; also recorded: E. faecalis, C. jeikeium,; also recorded: C. jejuni"

# Same assay, conditions: microorganism(s) that the targeting peptide binds, as listed in Table 2
row,Substance,Target(s)
1,PF-C084 (FFSVIFLFGLNYLICNSPLFNILR),"A. naeslundii, F. nucleatum, P. gingivalis,; also recorded: S. mutans"
2,PF-C281 (KKEKLLTAIRLQHRAEIRGYFTIFFLFFRI),"A. naeslundii, F. nucleatum, P. gingivalis,; also recorded: S. mutans, T. denticola"
3,PF-S029 (TSDTQSQSPWLFDNADIVNIYPVQLMHSSDND),"M. luteus, P. mirabilis, E. coli, C. albicans,; also recorded: C. jeikeium, C. jejuni"
4,PF-C045 (FREGMGWPLSNEGSPTAPLPKHRNQV),"A. naeslundii, T. denticola"
5,PF-U (TFFRLFNRSFTQALGK),S. mutans
6,PF-795 (ALHKSGIQVIADWVPDQIYN),S. mutans
7,PF-C285 (FTIIELKKQKIKHGENNKKTAHPLNEPFCARA),"A. naeslundii, F. nucleatum, P. gingivalis,; also recorded: S. mutans, T. denticola"
8,PF-799 (YTHYNTALSYALLLTNKSSVP),S. mutans
9,PF-C058 (FETGFGDGYYMSLWGLNEKDEVCKVVIPFINPELID),"A. naeslundii, F. nucleatum, P. gingivalis,; also recorded: S. mutans"

# Same assay, conditions: microorganism(s) the targeting peptide binds, as listed in Table 2
row,Substance,Target(s)
1,1T-119 (SPATQKAPTRAQPSRAPVQDCGDGRPTAAPDDVERLSPR),"S. gordonii, S. mitis, S. mutans,; also recorded: S. oralis"
2,1T-71 (KIDTNQWPPNKEG),P. aeruginosa
3,1T-127 (YDPVPKRKNKNSEGKREE),"A. naeslundii, F. nucleatum, P. gingivalis,; also recorded: T. denticola, S. gordonii,; also recorded: S. mitis, S. mutans, S. oralis,; also recorded: S. salivarious, S. sanguinis"
4,1T-17 (NNAIVYIS),S. mutans
5,1T-82 (FGVGVGIALFMAGYAIGKDLRKKFGKSC),S. pneumoniae
6,1T-103 (AQFYEAIITGYALGAGQRIGQL),"A. naeslundii, F. nucleatum, P. gingivalis,; also recorded: S. epidermidis, S. gordonii,; also recorded: S. mitis, S. mutans, S. oralis,; also recorded: S. sanguinis"
7,1T-173 (LFRKEDQEHVLL),"A. naeslundii, F. nucleatum, P. gingivalis,; also recorded: S. gordonii, S. mitis,; also recorded: S. mutans, S. oralis, S. salivarious,; also recorded: S. sanguinis"
8,1T-33 (VRTLTILVIFIFNYLKSISYKLKQPFENNLAQSMISI),"S. aureus, S. epidermidis, C. jeikeium,; also recorded: C. xerosis, C. striatum,; also recorded: P. aeruginosa"
9,1T-165 (CYDSFDFSIFVTFANRMKLSVGS),"A. naeslundii, F. nucleatum, P. gingivalis,; also recorded: S. epidermidis, S. gordonii,; also recorded: S. mitis, S. mutans, S. oralis,; also recorded: S. salivarious, S. sanguinis"
10,1T-146 (RNSADNQTKIDKIRIDISLWDEHLNIVKQGK),"A. naeslundii, F. nucleatum, P. gingivalis,; also recorded: T. denticola, S. gordonii,; also recorded: S. mitis, S. mutans, S. oralis,; also recorded: S. salivarious, S. sanguinis"
11,1T-148 (IVELDDTTILERALSMLGEANA),"A. naeslundii, F. nucleatum, P. gingivalis,; also recorded: T. denticola, S. gordonii,; also recorded: S. mitis, S. mutans, S. oralis,; also recorded: S. salivarious, S. sanguinis"
12,1T-196 (KPEKEKLDTNTLMKVVNKALSLFDRLLIKFGA),"F. nucleatum, S. sanguinis"
13,1T-145 (VEAGKRNISLENIEKISKGLGISISELFKYIEEGEDKIG),"S. mitis, S. mutans, S. oralis"
14,1T-58 (CDDLHALERAGKLDALLSA),P. aeruginosa
15,1T-185 (HYHFLLEFGFHKGDYLE),"A. naeslundii, F. nucleatum, P. gingivalis,; also recorded: T. denticola, S. gordonii,; also recorded: S. mitis, S. mutans, S. oralis,; also recorded: S. salivarious, S. sanguinis"
16,1T-182 (LTASICRQWNDNSTPYQR),"A. naeslundii, F. nucleatum, P. gingivalis,; also recorded: T. denticola, S. gordonii,; also recorded: S. mitis, S. mutans, S. oralis,; also recorded: S. salivarious, S. sanguinis"
17,1T-23 (PALVDLSNKEAVWAVLDDHS),"S. mutans, P. aeruginosa"
18,1T-126 (QGLARPVLRRIPL),"S. gordonii, S. mitis, S. mutans"
19,1T-53 (SDILAEMFEKGELQTLVKDAAAKANA),P. aeruginosa
20,1T-147 (GVENRRFYERDVSKVSMMTSEAVAPRGGSK),"A. naeslundii, F. nucleatum, P. gingivalis,; also recorded: T. denticola, S. gordonii,; also recorded: S. mitis, S. mutans, S. oralis,; also recorded: S. salivarious, S. sanguinis"
21,1T-143 (MPKRHYYKLEAKALQFGLPFAYSPIQLLK),"A. naeslundii, F. nucleatum, P. gingivalis,; also recorded: S. epidermidis, S. gordonii,; also recorded: S. mitis, S. mutans, S. oralis,; also recorded: S. salivarious, S. sanguinis"
22,1T-225 (RRSLGNSASFAEWIEYIRYLHYIIRVQFIHFFSKNKKI),"A. naeslundii, F. nucleatum, P. gingivalis,; also recorded: S. epidermidis, S. gordonii,; also recorded: S. mitis, S. mutans, S. oralis,; also recorded: S. salivarious, S. sanguinis"
23,1T-76 (EMRLSKFFRDFILWRKK),S. pneumoniae
24,1T-240 (VILGNGISNIAQTLGQLPNIAWVWIYMVLIAALLEESNVC),"A. naeslundii, F. nucleatum, P. gingivalis,; also recorded: S. epidermidis, S. gordonii,; also recorded: S. mitis, S. mutans, S. oralis,; also recorded: S. salivarious, S. sanguinis"
